# Measurements published in PubChem BioAssay AID2060615 (Molecular Pharmacology Branch, DTP, NCI, 2025).
# System: 496974-208-R-J2-PDC complex spheroids, growth % test/control
# Assay: Anticancer human tumor 496974-208-R-J2-PDC patient-derived pancreatic carcinoma cell line growth inhibition [CLK]
# Details: for IC50: curve of first compound; for viability, T/C: stronger effect = lower value
# How it was run: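 Patient-derived tumor cells grown as complex spheroids with HUVEC endothelial cells and mesenchymal stem cells, treated with drug combinations. Concentrations descend in half-log steps from near clinical Cmax, or from 10 microM if Cmax unknown.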
# [1] = second compound 0.0316 µM, first compound 0.0316 µM
# [2] = second compound 0.0316 µM, first compound 0.1 µM
# [3] = second compound 0.1 µM, first compound 0.0316 µM
# [4] = second compound 0.1 µM, first compound 0.1 µM
# [5] = second compound 0.316 µM, first compound 0.0316 µM
# [6] = second compound 0.316 µM, first compound 0.1 µM
# [7] = second compound 1 µM, first compound 0.0316 µM
# [8] = second compound 1 µM, first compound 0.1 µM
# [9] = second compound 3.16 µM, first compound 0.0316 µM
# [10] = second compound 3.16 µM, first compound 0.1 µM
# [11] = second compound 10 µM, first compound 0.0316 µM
# [12] = second compound 10 µM, first compound 0.1 µM
# [13] = second compound 0.0316 µM, first compound 0.316 µM
# [14] = second compound 0.0316 µM, first compound 1 µM
# [15] = second compound 0.0316 µM, first compound 3.16 µM
# [16] = second compound 0.0316 µM, first compound 10 µM
# [17] = second compound 0.1 µM, first compound 0.316 µM
# [18] = second compound 0.1 µM, first compound 1 µM
# [19] = second compound 0.1 µM, first compound 3.16 µM
# [20] = second compound 0.1 µM, first compound 10 µM
# [21] = second compound 0.316 µM, first compound 0.316 µM
# [22] = second compound 0.316 µM, first compound 1 µM
# [23] = second compound 0.316 µM, first compound 3.16 µM
# [24] = second compound 0.316 µM, first compound 10 µM
# [25] = second compound 1 µM, first compound 0.316 µM
# [26] = second compound 1 µM, first compound 1 µM
# [27] = second compound 1 µM, first compound 3.16 µM
# [28] = second compound 1 µM, first compound 10 µM
# [29] = second compound 3.16 µM, first compound 0.316 µM
# [30] = second compound 3.16 µM, first compound 1 µM
# [31] = second compound 3.16 µM, first compound 3.16 µM
# [32] = second compound 3.16 µM, first compound 10 µM
# [33] = second compound 10 µM, first compound 0.316 µM
# [34] = second compound 10 µM, first compound 1 µM
# [35] = second compound 10 µM, first compound 3.16 µM
# [36] = second compound 10 µM, first compound 10 µM
# 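Note: spheroids exposed to the drugs for 7 days before readout.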
# 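Throughout, for viability, T/C: 100% = DMSO vehicle control wells.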
smiles,measurement,setting,value
CC(C)CC(NC(=O)C(Cc1ccccc1)NC(=O)c1cnccn1)B(O)O (stereo not drawn) + CN1CCN(c2cc(C(=O)Nc3cc4cc(-c5cnn(C)c5)ccc4cn3)ccn2)CC1,IC50,second compound 0.0316 µM,4.54 nM
same,IC50,second compound 0.1 µM,3.84 nM
same,IC50,second compound 0.316 µM,< 0.949 nM
same,IC50,second compound 1 µM,< 0.949 nM
same,IC50,second compound 3.16 µM,< 0.949 nM
same,IC50,second compound 10 µM,< 0.949 nM
same,"viability, T/C","second compound 0.0316 µM, first compound 0.000949 µM",104%
same,"viability, T/C","second compound 0.0316 µM, first compound 0.003 µM",77.2%
same,"viability, T/C","second compound 0.0316 µM, first compound 0.00949 µM",1.7%
same,"viability, T/C","second compound 0.0316 µM, first compound 0.03 µM",0.32%
same,"viability, T/C","second compound 0.0316 µM, first compound 0.0949 µM",0.24%
same,"viability, T/C","second compound 0.0316 µM, first compound 0.3 µM",2.04%
same,"viability, T/C","second compound 0.1 µM, first compound 0.000949 µM",85.5%
same,"viability, T/C","second compound 0.1 µM, first compound 0.003 µM",63.1%
same,"viability, T/C","second compound 0.1 µM, first compound 0.00949 µM",2%
same,"viability, T/C","second compound 0.1 µM, first compound 0.03 µM",0.33%
same,"viability, T/C","second compound 0.1 µM, first compound 0.0949 µM",0.27%
same,"viability, T/C","second compound 0.1 µM, first compound 0.3 µM",3.67%
same,"viability, T/C","second compound 0.316 µM, first compound 0.000949 µM",6.64%
same,"viability, T/C","second compound 0.316 µM, first compound 0.003 µM",5.3%
same,"viability, T/C","second compound 0.316 µM, first compound 0.00949 µM",0.71%
same,"viability, T/C","second compound 0.316 µM, first compound 0.03 µM",0.38%
same,"viability, T/C","second compound 0.316 µM, first compound 0.0949 µM",0.51%
same,"viability, T/C","second compound 0.316 µM, first compound 0.3 µM",2.72%
same,"viability, T/C","second compound 1 µM, first compound 0.000949 µM",0.49%
same,"viability, T/C","second compound 1 µM, first compound 0.003 µM",1.07%
same,"viability, T/C","second compound 1 µM, first compound 0.00949 µM",0.68%
same,"viability, T/C","second compound 1 µM, first compound 0.03 µM",0.63%
same,"viability, T/C","second compound 1 µM, first compound 0.0949 µM",2.26%
same,"viability, T/C","second compound 1 µM, first compound 0.3 µM",1.33%
same,"viability, T/C","second compound 3.16 µM, first compound 0.000949 µM",0.5%
same,"viability, T/C","second compound 3.16 µM, first compound 0.003 µM",2.35%
same,"viability, T/C","second compound 3.16 µM, first compound 0.00949 µM",0.66%
same,"viability, T/C","second compound 3.16 µM, first compound 0.03 µM",0.53%
same,"viability, T/C","second compound 3.16 µM, first compound 0.0949 µM",1.54%
same,"viability, T/C","second compound 3.16 µM, first compound 0.3 µM",2.08%
same,"viability, T/C","second compound 10 µM, first compound 0.000949 µM",0.27%
same,"viability, T/C","second compound 10 µM, first compound 0.003 µM",0.26%
same,"viability, T/C","second compound 10 µM, first compound 0.00949 µM",1.83%
same,"viability, T/C","second compound 10 µM, first compound 0.03 µM",0.24%
same,"viability, T/C","second compound 10 µM, first compound 0.0949 µM",0.3%
same,"viability, T/C","second compound 10 µM, first compound 0.3 µM",2.65%
Cn1ncnc1[C@H]1c2n[nH]c(=O)c3cc(F)cc(c23)N[C@@H]1c1ccc(F)cc1 + CN1CCN(c2cc(C(=O)Nc3cc4cc(-c5cnn(C)c5)ccc4cn3)ccn2)CC1,IC50,second compound 0.0316 µM,> 100 nM
same,IC50,second compound 0.1 µM,> 100 nM
same,IC50,second compound 0.316 µM,< 0.316 nM
same,IC50,second compound 1 µM,< 0.316 nM
same,IC50,second compound 3.16 µM,< 0.316 nM
same,IC50,second compound 10 µM,< 0.316 nM
same,"viability, T/C","second compound 0.0316 µM, first compound 0.000316 µM",112%
same,"viability, T/C","second compound 0.0316 µM, first compound 0.001 µM",106%
same,"viability, T/C","second compound 0.0316 µM, first compound 0.00316 µM",99.2%
same,"viability, T/C","second compound 0.0316 µM, first compound 0.01 µM",94.9%
same,"viability, T/C",[1],107%
same,"viability, T/C",[2],96.5%
same,"viability, T/C","second compound 0.1 µM, first compound 0.000316 µM",84.8%
same,"viability, T/C","second compound 0.1 µM, first compound 0.001 µM",88.5%
same,"viability, T/C","second compound 0.1 µM, first compound 0.00316 µM",85.1%
same,"viability, T/C","second compound 0.1 µM, first compound 0.01 µM",79.6%
same,"viability, T/C",[3],84.1%
same,"viability, T/C",[4],63.7%
same,"viability, T/C","second compound 0.316 µM, first compound 0.000316 µM",5.57%
same,"viability, T/C","second compound 0.316 µM, first compound 0.001 µM",7.18%
same,"viability, T/C","second compound 0.316 µM, first compound 0.00316 µM",5.28%
same,"viability, T/C","second compound 0.316 µM, first compound 0.01 µM",6.84%
same,"viability, T/C",[5],6.51%
same,"viability, T/C",[6],9.2%
same,"viability, T/C","second compound 1 µM, first compound 0.000316 µM",0.52%
same,"viability, T/C","second compound 1 µM, first compound 0.001 µM",0.5%
same,"viability, T/C","second compound 1 µM, first compound 0.00316 µM",0.55%
same,"viability, T/C","second compound 1 µM, first compound 0.01 µM",0.33%
same,"viability, T/C",[7],0.32%
same,"viability, T/C",[8],2.32%
same,"viability, T/C","second compound 3.16 µM, first compound 0.000316 µM",0.36%
same,"viability, T/C","second compound 3.16 µM, first compound 0.001 µM",0.46%
same,"viability, T/C","second compound 3.16 µM, first compound 0.00316 µM",1.75%
same,"viability, T/C","second compound 3.16 µM, first compound 0.01 µM",0.59%
same,"viability, T/C",[9],0.66%
same,"viability, T/C",[10],0.41%
same,"viability, T/C","second compound 10 µM, first compound 0.000316 µM",0.27%
same,"viability, T/C","second compound 10 µM, first compound 0.001 µM",1.75%
same,"viability, T/C","second compound 10 µM, first compound 0.00316 µM",0.83%
same,"viability, T/C","second compound 10 µM, first compound 0.01 µM",0.22%
same,"viability, T/C",[11],2.44%
same,"viability, T/C",[12],2.04%
Nc1ccn(C2OC(CO)C(O)C2(F)F)c(=O)n1 (stereo not drawn) + CN1CCN(c2cc(C(=O)Nc3cc4cc(-c5cnn(C)c5)ccc4cn3)ccn2)CC1,IC50,second compound 0.0316 µM,959 nM
same,IC50,second compound 0.1 µM,259 nM
same,IC50,second compound 0.316 µM,< 31.6 nM
same,IC50,second compound 1 µM,< 31.6 nM
same,IC50,second compound 3.16 µM,< 31.6 nM
same,IC50,second compound 10 µM,< 31.6 nM
same,"viability, T/C",[1],90.8%
same,"viability, T/C",[2],76.9%
same,"viability, T/C",[13],62.3%
same,"viability, T/C",[14],44%
same,"viability, T/C",[15],48.2%
same,"viability, T/C",[16],50%
same,"viability, T/C",[3],76.3%
same,"viability, T/C",[4],57.8%
same,"viability, T/C",[17],50.3%
same,"viability, T/C",[18],40.6%
same,"viability, T/C",[19],38.6%
same,"viability, T/C",[20],38.5%
same,"viability, T/C",[5],5.11%
same,"viability, T/C",[6],5.63%
same,"viability, T/C",[21],6.71%
same,"viability, T/C",[22],5.91%
same,"viability, T/C",[23],5.91%
same,"viability, T/C",[24],4.9%
same,"viability, T/C",[7],0.42%
same,"viability, T/C",[8],0.5%
same,"viability, T/C",[25],1.35%
same,"viability, T/C",[26],0.4%
same,"viability, T/C",[27],2.61%
same,"viability, T/C",[28],0.41%
same,"viability, T/C",[9],0.53%
same,"viability, T/C",[10],0.7%
same,"viability, T/C",[29],0.57%
same,"viability, T/C",[30],0.47%
same,"viability, T/C",[31],0.44%
same,"viability, T/C",[32],1.78%
same,"viability, T/C",[11],0.28%
same,"viability, T/C",[12],1.23%
same,"viability, T/C",[33],1.72%
same,"viability, T/C",[34],0.25%
same,"viability, T/C",[35],2.65%
same,"viability, T/C",[36],0.29%
O=C(c1cc(Cc2n[nH]c(=O)c3ccccc23)ccc1F)N1CCN(C(=O)C2CC2)CC1 + CN1CCN(c2cc(C(=O)Nc3cc4cc(-c5cnn(C)c5)ccc4cn3)ccn2)CC1,IC50,second compound 0.0316 µM,> 10000 nM
same,IC50,second compound 0.1 µM,> 10000 nM
same,IC50,second compound 0.316 µM,< 31.6 nM
same,IC50,second compound 1 µM,< 31.6 nM
same,IC50,second compound 3.16 µM,< 31.6 nM
same,IC50,second compound 10 µM,< 31.6 nM
same,"viability, T/C",[1],98.7%
same,"viability, T/C",[2],96%
same,"viability, T/C",[13],87.4%
same,"viability, T/C",[14],97.7%
same,"viability, T/C",[15],88.3%
same,"viability, T/C",[16],88.2%
same,"viability, T/C",[3],82.7%
same,"viability, T/C",[4],76%
same,"viability, T/C",[17],80.2%
same,"viability, T/C",[18],79.4%
same,"viability, T/C",[19],83.2%
same,"viability, T/C",[20],64.7%
same,"viability, T/C",[5],5.96%
same,"viability, T/C",[6],5.32%
same,"viability, T/C",[21],5.38%
same,"viability, T/C",[22],6.21%
same,"viability, T/C",[23],5.51%
same,"viability, T/C",[24],6.01%
same,"viability, T/C",[7],0.53%
same,"viability, T/C",[8],0.75%
same,"viability, T/C",[25],1.95%
same,"viability, T/C",[26],0.47%
same,"viability, T/C",[27],1.71%
same,"viability, T/C",[28],1.78%
same,"viability, T/C",[9],0.81%
same,"viability, T/C",[10],0.43%
same,"viability, T/C",[29],0.55%
same,"viability, T/C",[30],0.48%
same,"viability, T/C",[31],0.71%
same,"viability, T/C",[32],4%
same,"viability, T/C",[11],0.41%
same,"viability, T/C",[12],0.24%
same,"viability, T/C",[33],0.82%
same,"viability, T/C",[34],0.42%
same,"viability, T/C",[35],2.08%
same,"viability, T/C",[36],2.09%
